Measured values published in publication PMC9608075 (Pharmaceutics, 2022).
Blank lines part the entries; values can stand above or below the compound they belong to.

How the values were obtained:
[1] = Metabolic stability in mouse plasma; format: in vitro ADME; conditions: 37 °C, 60 min
Description: (§1) Briefly, brain homogenates were prepared by adding 9X of 0.1 M potassium phosphate buffer to weighed tissue and homogenization using a probe sonicator. Plasma and crude brain homogenate (1 mL each) were spiked with the analyte to give a final concentration of 10 µM and then incubated at 37 °C for 1 h. At predetermined time points (0, 30, and 60 min), an aliquot from each matrix was quenched with 3X volume of acetonitrile containing the internal standard (IS; losartan: 0.5 μM) and vortex-mixed for 30 s. The final mixtures were centrifuged at 10,000× g for 10 min at 4 °C and supernatants were used for LC-MS analyses.
(§2) The samples were analyzed using a Dionex Ultimate 3000 ultra-high-performance LC system coupled with a Q Exactive Focus orbitrap mass spectrometer (Thermo Fisher Scientific Inc., Waltham MA, USA) operated with a heated electrospray ionization (HESI) ion source. […] The mass spectrometer was operated in switching ionization mode to collect both positive and negative molecular ions while being controlled by Xcalibur software 4.0.27.13 (Thermo Scientific). Analytes were quantified and the disappearance of the respective catechols was monitored in the full-scan mode (from m/z 50 to 1600) by comparing samples at the different time-points.

in vitro = in vitro ADME; conditions: mouse, brain homogenate
Description: as §1, §2

[2] = Initial two time-point pharmacokinetic study in mice; format: in vivo, mouse; conditions: 50 mg/kg PO; for brain levels: at both time points (30 and 60 min); for concentration at 30 min: 30 min post dose
Description: For in vivo PK studies, male CD-1 mice (Harlan Laboratories, Indianapolis, IN, USA) weighing 25-30 g were used. The mice were maintained on a 12 h light-dark cycle with ad libitum access to food and water. […] Brains were dissected and immediately flash frozen (-80 °C). […] Caffeic acid was analyzed underivatized. […] Plasma and brain tissue samples were processed by matching dilutions of the calibration standards. […] Then, 2 μL of the sample was analyzed using LC/MS/MS system. […] Plasma and brain tissue samples were processed by matching the dilutions of calibration standards of the respective tissues. […] The solutions were vortexed for 15 s and then allowed to sit at room temperature for 45 min. These mixtures were vortexed again for 10 s and centrifuged at 10,000× g for 10 min to collect the supernatant. Then, 2 μL of the sample was injected into the LC/MS/MS system for analysis. Chromatographic analysis was performed using a Thermo Scientific Vanquish UPLC system consisting of an analytical pump and an autosampler coupled with a […] spectrometer. […] The mobile phase was delivered as a gradient at a flow rate of 0.400 mL/min. […] The analyte was monitored using a ThermoScientific […] triple-quadrupole mass-spectrometric detector equipped with an electrospray interface, and operated in negative ion mode. The instrument was controlled by Thermo Scientific Xcalibur (version 4.2.47) software.

human recombinant GCPII = human recombinant GCPII (Homo sapiens, UniProt Q04609); test: GCPII activity assay (radioactivity-based, NAA-[3H]-G); format: biochemical; conditions: for IC50: human recombinant GCPII
Sequence of human recombinant GCPII (Q04609 whole entry): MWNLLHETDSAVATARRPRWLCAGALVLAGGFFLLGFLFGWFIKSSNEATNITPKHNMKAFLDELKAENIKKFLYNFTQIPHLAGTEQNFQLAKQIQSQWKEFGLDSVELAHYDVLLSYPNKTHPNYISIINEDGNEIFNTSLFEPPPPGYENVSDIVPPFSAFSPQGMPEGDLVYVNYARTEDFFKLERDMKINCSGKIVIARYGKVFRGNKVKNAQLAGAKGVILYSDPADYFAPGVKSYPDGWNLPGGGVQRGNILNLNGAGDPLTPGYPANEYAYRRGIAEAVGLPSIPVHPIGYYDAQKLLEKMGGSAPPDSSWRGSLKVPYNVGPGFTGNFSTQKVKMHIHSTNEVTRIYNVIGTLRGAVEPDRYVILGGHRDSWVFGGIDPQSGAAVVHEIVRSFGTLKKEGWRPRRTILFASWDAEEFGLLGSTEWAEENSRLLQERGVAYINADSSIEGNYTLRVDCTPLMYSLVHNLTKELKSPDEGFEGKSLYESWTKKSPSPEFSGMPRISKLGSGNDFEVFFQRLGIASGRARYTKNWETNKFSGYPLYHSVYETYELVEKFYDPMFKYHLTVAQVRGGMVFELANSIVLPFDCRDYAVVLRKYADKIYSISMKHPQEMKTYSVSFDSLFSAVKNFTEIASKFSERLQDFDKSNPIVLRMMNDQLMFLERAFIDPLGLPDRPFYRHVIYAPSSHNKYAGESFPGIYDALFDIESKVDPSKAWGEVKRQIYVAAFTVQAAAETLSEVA
Description: Inhibition potencies against GCPII (IC50 values) were determined using previously described methods with minor modifications. Briefly, reactions were carried out in the presence of NAA-[^3H]-G and human recombinant GCPII enzyme in Tris-HCl and CoCl2 at 37 °C for 20 min. Reactions were stopped with ice-cold sodium phosphate buffer containing 1 mM EDTA. Aliquots were then transferred to 96-well spin columns containing AG1X8 ion-exchange resin and centrifuged. NAA-[^3H]-G was bound to the resin and [^3H]-G eluted in the flow-through. Columns were washed with formate to ensure complete elution of [^3H]-G. The flow-through and the washes were collected, and aliquots were transferred and dried to completion in a solid scintillator-coated 96-well plate. The radioactivity corresponding to [^3H]-G was determined with a scintillation counter. Subsequently, IC50 curves were generated from CPM results.
The inhibitory potencies of the catechols were determined using a modified radioactivity-based assay involving human recombinant GCPII enzyme as previously reported. Based on literature reports of catecholic moieties binding to zinc metalloproteases, we tested the potency of L-DOPA (1) against GCPII activity and discovered that it is a submicromolar inhibitor. […] This prompted us to evaluate analogs of L-DOPA (Table 1) to determine the essential structural features responsible for its GCPII inhibitory activity. […] Subsequently, we tested L-DOPA analogs retaining the catechol moiety (compounds 5–10). […] Taken together, these structure–activity relationship (SAR) studies highlight the critical role played by the catechol and carboxylate groups of L-DOPA in GPCII inhibition as well as the insignificant contribution of the alpha amino group.

[3] = Metabolite identification (MET-ID) in spiked brain homogenate; format: in vitro ADME, mouse; conditions: 30 min post-spike
GCPII = target: T1, GCPII (Mus musculus, UniProt O35409); test: D-DOPA target engagement: ex vivo GCPII activity in mouse brain; conditions: for brain GCPII activity, effect in words: 30 min
T1 construct: from tissue
T1 sequence (O35409 whole entry): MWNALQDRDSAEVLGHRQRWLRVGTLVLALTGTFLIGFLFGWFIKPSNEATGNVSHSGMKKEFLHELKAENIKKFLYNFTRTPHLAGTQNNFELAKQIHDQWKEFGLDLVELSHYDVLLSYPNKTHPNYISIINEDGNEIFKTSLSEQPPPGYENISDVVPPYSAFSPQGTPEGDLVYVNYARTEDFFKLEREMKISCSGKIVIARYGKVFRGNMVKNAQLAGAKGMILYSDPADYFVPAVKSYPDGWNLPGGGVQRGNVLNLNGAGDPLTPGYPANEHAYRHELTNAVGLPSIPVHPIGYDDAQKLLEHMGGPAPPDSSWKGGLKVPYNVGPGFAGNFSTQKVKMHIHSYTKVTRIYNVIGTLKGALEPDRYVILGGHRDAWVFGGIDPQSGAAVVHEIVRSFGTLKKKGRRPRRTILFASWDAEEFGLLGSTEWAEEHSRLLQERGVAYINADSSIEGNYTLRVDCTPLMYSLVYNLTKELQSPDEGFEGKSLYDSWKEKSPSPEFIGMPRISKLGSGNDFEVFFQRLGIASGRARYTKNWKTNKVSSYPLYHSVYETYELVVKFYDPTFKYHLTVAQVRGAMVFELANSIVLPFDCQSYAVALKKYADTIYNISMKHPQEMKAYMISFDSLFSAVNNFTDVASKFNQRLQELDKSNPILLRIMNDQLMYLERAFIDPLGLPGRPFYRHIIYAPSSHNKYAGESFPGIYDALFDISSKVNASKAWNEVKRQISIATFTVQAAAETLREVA

in vivo = conditions: male, CD-1, mouse
Description: All of the formulations were freshly prepared prior to the dosing. […] Brain and plasma collection were carried out as described above. […] Plasma and brain tissue samples were processed by matching the dilutions of calibration standards of the respective tissues. […] The solutions were vortexed for 15 s and then allowed to sit at room temperature for 45 min. These mixtures were vortexed again for 10 s and centrifuged at 10,000× g for 10 min to collect the supernatant. Then, 2 μL of the sample was injected into the LC/MS/MS system for analysis. Chromatographic analysis was performed using a Thermo Scientific Vanquish UPLC system consisting of an analytical pump and an autosampler coupled with a […] spectrometer. […] The mobile phase was delivered as a gradient at a flow rate of 0.400 mL/min. […] The analyte was monitored using a ThermoScientific […] triple-quadrupole mass-spectrometric detector equipped with an electrospray interface, and operated in negative ion mode. The instrument was controlled by Thermo Scientific Xcalibur (version 4.2.47) software.

[4] = male, CD-1, mouse, plasma, read-out: plasma levels

Structure (SMILES): NCCc1ccc(O)c(O)c1 [Compound 7, Dopamine, reference compound]
IC50 (human recombinant GCPII): > 100 µM

Structure (SMILES): C[C@](N)(Cc1ccc(O)c(O)c1)C(=O)O [Compound 5]
IC50 (human recombinant GCPII): > 100 µM

Structure (SMILES): O=C(O)CCc1ccc(O)c(O)c1 [Compound 8]
IC50 (human recombinant GCPII): 4 µM | decrease in inhibitory potency (human recombinant GCPII; versus L-DOPA): 6.7 fold

Structure (SMILES): N[C@@H](Cc1ccc(O)c(O)c1)C(=O)O [Compound 1, L-DOPA, reference compound]
remaining at 1 h, 10 µM [1]: 64% | Dopamine release in spiked brain homogenate [3]: observed | remaining at 0.5 h, 10 µM (in vitro): 0% | brain levels [2]: < 0.10 nmol/g | concentration at 30 min [2, 4]: 3.74 µM | IC50 (human recombinant GCPII): 0.6 µM

Structure (SMILES): CC(=O)N[C@@H](Cc1ccc(O)c(O)c1)C(=O)O [Compound 6]
IC50 (human recombinant GCPII): 20 µM

Structure (SMILES): N[C@H](Cc1ccc(O)c(O)c1)C(=O)O [Compound 10, D-DOPA]
remaining at 1 h, 10 µM [1]: 100% | Dopamine release in spiked brain homogenate [3]: not observed | brain GCPII activity, effect in words (GCPII; PO 50 mg/kg + sodium benzoate IP 400 mg/kg, p < 0.001 vs untreated): significant inhibition | brain GCPII activity, effect in words (GCPII; monotherapy PO 50 mg/kg, p < 0.01 vs untreated): significant inhibition | inhibition at 50 mg/kg (GCPII; mouse, po): ~25% | remaining at 1 h, 10 µM (in vitro): 82% | brain levels [2]: ~ 1 nmol/g | concentration at 30 min [2, 4]: 84.3 µM | concentration at 1 h ([2]; male, CD-1, mouse, plasma, one hour post dose, read-out: plasma levels): 21.5 µM | bioavailability (in vivo): 47.7% | AUC(0-t) (in vivo; iv, 10 mg/kg): 30.5 µM·h | clearance (in vivo; iv, 10 mg/kg, Cl): 28 mL/min/kg | Cmax (in vivo; iv, 10 mg/kg, Cmax): 61.1 µM | Tmax (in vivo; iv, 10 mg/kg, Tmax): 5 min | clearance (in vivo; iv, 10 mg/kg, clearance (Cl)): 28 mL/min/kg | half-life (in vivo; iv, 10 mg/kg, half-life (t1/2)): 21 min | AUC(0-t) (in vivo; po, 50 mg/kg): 72.7 µM·h | AUCbrain (in vivo; po, 50 mg/kg): 2.42 nmol/g | Cmax (in vivo; po, 50 mg/kg): 1.74 µM | Tmax (in vivo; po, 50 mg/kg): 15 min | Kp (in vivo; po, 50 mg/kg, AUCBrain/Plasma ratio (brain penetration index)): 0.03 | Cmax (in vivo; po, 50 mg/kg, Cmax): 99 µM | Tmax (in vivo; po, 50 mg/kg, Tmax): 30 min | IC50 (human recombinant GCPII): 0.2 µM

Results, then the compound that gave them:

remaining at 1 h, 10 µM [1]: 56% | remaining at 1 h, 10 µM (in vitro): 98% | plasma levels following oral administration ([2]; 30 and 60 min): 6 to 7 µM | brain levels [2]: < 0.01 nmol/g | concentration at 30 min [2, 4]: 6.47 µM | IC50 (human recombinant GCPII): 0.3 µM
Structure (SMILES): O=C(O)/C=C/c1ccc(O)c(O)c1 [Compound 9, Caffeic Acid]

IC50 (human recombinant GCPII): 100 µM
Structure (SMILES): N[C@@H](Cc1ccc(O)cc1)C(=O)O [Compound 2, Tyr]

IC50 (human recombinant GCPII): > 100 µM
Structure (SMILES): NC(Cc1ccc(=O)n(O)c1)C(=O)O (stereo not shown) [Compound 4]
